The values that follow come from patent publication US6590123B2, “Aminobenzoic acid derivatives having anti-tumorigenic activity, methods of making and using the same” (Mount Sinai School of Medicine of New York University, priority 1998, dated 2003).

Structures can show the parent of a compound that is named as a salt.

Data set [1] relates to P338 leukemia lymphoma cells. Briefly: Survival and ED50 in mice implanted i.p. with P338 lymphoma. In kind it is in vivo, male C57 BL/6JX mice. Particulars: for Survival IL % / Survival Mean ± SD: P338 Lymphoma (i.p.); for ED50: P338 leukemia lymphoma i.p. in mice, drug i.p. on days 2 and 8. How it is done: FIG. 9 is a plot graph of the survival rate of male C57 BL/6JX mice implanted (i.p.) with P338 lymphoma, from 10 to 40 days after implantation. Two groups were used for the study: a control group of ten and a test group of ten that were treated with 20 mg/kg, (i.p.) of compound 8 at 2 and 8 days post-implantation.
(§1) The in vivo efficacy of 3-BAABU and 3-IAABU of the present invention was asssessed in a murine model, along with known anti-tubule agents, vinblastine and paclitaxel, as a comparative standard. Approximately 10^6 P338 leukemia lymphoma cells/mouse were implanted intra-peritoneal (i.p.) into male C57 BL/6JX mice (Jackson Laboratories, N.Y.). On days 2 and 8 post-implantation, drugs were administrated i.p. at the following concentration ranges: 3-BAABU from 16.6 to 116 μmole/kg, 3-IAABU from 14.4 to 101 μmole/kg, vinblastine from 2.2 to 20 μmole/kg and paclitaxel from 28 to 57 μmole/kg.
(§2) Both control and treated animals were examined for ascitic tumor burden daily for 35 days. […] Therapeutic index was defined as the ratio of LD50 (lethal dose) to ED50 (effective dose).

Data set [2] relates to repolymerized microtubules. Briefly: Inhibition of microtubule disassembly by spectrophotometry, cell free system. The data set is classed as biochemical, calf. The note with it: 23 μM. The method, then: Purified tubulin was purchased from Sigma (St. Louis, Mo.). The effects of compounds 6, 7, 8, 9, paclitaxel and vinblastine on the microtubule assembly-disassembly process were determined using conditions recommended by the vendor. For assembly inhibition, 100 μl tubulin solution (500-600 μg protein/ml) was mixed gently with 400 μl reaction buffer containing 0.1 M MES (2-[N-morpholino]ethane sulfonic acid), 1 mM EGTA ([…]-N,N,N′,N′-tetraacetic acid), 0.5 mM MgCl2, 0.1 mM EDTA and 2.5 M gycerol at 37° C. Compounds 6, 7, 8, and 9 were next added to each sample at final concentrations of 10, 10, 1 and 1 μg/ml, respectively. After adding GTP to each sample to a final concentration of 1 mM, the microtubule assembly process was monitored by measuring the change of absorbance (OD) at 350 nm on a spectrophotometer (Ultrospec III, Pharmacia LKB, Uppsala, Sweden). […] Changes of absorbance (OD) were monitored at 350 nm for 30 min until the OD values in the controls returned to the starting level, i.e., when the assembly-disassembly cycle was completed.
Purified tubulin from calf brain was purchased from Sigma (St. Louis, Mo.). The effects of 3-BAABU (3-bromoacetoamido, benzoylurea) on the microtubule assembly-disassembly process were determined using the conditions recommended by the vendor. […]

The test system of another data set is Purified tubulin. Briefly: Inhibition of microtubule assembly by spectrophotometry, cell free system. The note with it: 23 μM. The data set is classed as biochemical, calf. The method, then: Purified tubulin was purchased from Sigma (St. Louis, Mo.). The effects of compounds 6, 7, 8, 9, paclitaxel and vinblastine on the microtubule assembly-disassembly process were determined using conditions recommended by the vendor. For assembly inhibition, 100 μl tubulin solution (500-600 μg protein/ml) was mixed gently with 400 μl reaction buffer containing 0.1 M MES (2-[N-morpholino]ethane sulfonic acid), 1 mM EGTA ([…]-N,N,N′,N′-tetraacetic acid), 0.5 mM MgCl2, 0.1 mM EDTA and 2.5 M gycerol at 37° C. Compounds 6, 7, 8, and 9 were next added to each sample at final concentrations of 10, 10, 1 and 1 μg/ml, respectively. After adding GTP to each sample to a final concentration of 1 mM, the microtubule assembly process was monitored by measuring the change of absorbance (OD) at 350 nm on a spectrophotometer (Ultrospec III, Pharmacia LKB, Uppsala, Sweden). A completed assembly process was observed within 40 min at room temperature. For disassembly inhibition, compounds 6, 7, 8, and 9 were added, at the above concentrations, to covets with repolymerized microtubules as described above, and incubated in melting ice. Changes of absorbance (OD) were monitored at 350 nm for 30 min until the OD values in the controls returned to the starting level, i.e., when the assembly-disassembly cycle was completed.
Purified tubulin from calf brain was purchased from Sigma (St. Louis, Mo.). The effects of 3-BAABU (3-bromoacetoamido, benzoylurea) on the microtubule assembly-disassembly process were determined using the conditions recommended by the vendor. For assembly inhibition, 100 μl tubulin solution (500-600 μg protein/ml) was mixed gently with 400 μl reaction buffer containing 0.1 M MES, 1 mM EGTA, 0.5 mM MgCl2, 0.1 mM EDTA and 2.5 M glycerol at 37° C. 3-BAABU, paclitaxel or vinblastine were then added to each sample cuvet at final concentrations of 3.3, 23 or 22 μM, respectively. After adding GTP to each sample to a final concentration of 1 mM, the microtubule assembly process was monitored by measuring the change of absorbance (OD) every 5 min at 350 nm on a spectrophotometer (Ultrospec III, Pharmacia LKB, Uppsala, Sweden). A completed assembly process was observed within 40 min at room temperature. For disassembly inhibition, 3-BAABU (3.3 μM), paclitaxel (23 μM) or vinblastine (22 μM) was added to a cuvet with repolymerized microtubules according to the method described above, and incubated in melting ice. Changes of absorbance (OD) were monitored at 350 nm for 30 min until the OD values in the controls returned to the starting level, i.e., completion of the assembly-disassembly cycle. Solvent solutions were used as control and had no effect in either the assembly or disassembly process.

Data set [3] in a line: LD50 (lethal dose) in mice. The note with it: mice, i.p.
Text: as §1, §2

For orientation: ED50 means the dose that gives a 50% effect, or the effect in half of the subjects. Broadly, the LD50 is the dose at which mortality reaches 50%. A higher LD50 goes with a less toxic substance.

Regarding `CC(=O)O[C@H]1C(=O)[C@@]2(C)[C@H]([C@H](OC(=O)c3ccccc3)[C@]3(O)C[C@H](OC(=O)[C@H](O)[C@@H](NC(=O)c4ccccc4)c4ccccc4)C(C)=C1C3(C)C)[C@]1(OC(C)=O)CO[C@@H]1C[C@@H]2O` [Paclitaxel, reference compound], the “Survival IL %” value in data set [1] (30 mg/kg ip on days 2 & 8) is on record as 10%. Further, the “Survival Mean ± SD” value in data set [1] (30 mg/kg ip on days 2 & 8, control 18.6 ± 1.1) is reported as 20.4 ± 3.2. The ED50 in data set [1] amounted to 37 µmol/kg. Further, the “inhibition of microtubule depolymerization” value in data set [2] was “significant inhibition”. Moreover, the “activity on microtubular polymerization” value in the data set with Purified tubulin is “no activity”. In data set [3], this compound yielded an LD50 of 45 µmol/kg.
As to `CC[C@]1(O)C[C@@H]2CN(CCc3c([nH]c4ccccc34)[C@@](C(=O)OC)(c3cc4c(cc3OC)N(C)[C@H]3[C@@](O)(C(=O)OC)[C@H](OC(C)=O)[C@]5(CC)C=CCN6CC[C@]43[C@@H]65)C2)C1` [Vinblastine, vinblastine sulfate], the “Survival IL %” value in data set [1] (2 mg/kg ip on days 2 & 8) was 21%. Moreover, the “Survival Mean ± SD” value in data set [1] (2 mg/kg ip on days 2 & 8, control 15.1 ± 2.3) was determined as 18.2 ± 6.3. The ED50 in data set [1] worked out at 4.5 µmol/kg. The compound further registered an LD50 in data set [3] of 9.2 µmol/kg.
